Test results reported in patent US10016382B2, “Method for decreasing skeletal muscle damage and/or oxidative stress in mammals” (LONZA INC., priority 2014, dated 2018).
Values joined by “and” are separate entries in the source; they are usually repeats but may differ in a detail not shown here. Equal entries are not always repeated. Marks after values point to notes of the source that are not given here.

Key:
[1] = Daily food consumption, Example 1; assay type: in vivo, dog; conditions: Ex.1, 250 mg/d; for Daily Food Intake: mean ± SEM
Method: Experimental Design: Forty Labrador Retrievers (labs) ranging in age from 1 to 3.5 years were incorporated into a two dietary treatment study. The two dietary treatments were based on feeding the test dogs the same low L-carnitine diet but adding 250 mg per day of L-carnitine to the L-carnitine group. Each of the L-carnitine dogs received the daily 250 mg of L-carnitine mixed with an additional 3.75 g sugar. The control dogs received 4 g of sugar each day. Twenty labs of equal gender, age, excitement level, frame size, body weight and genetic background were utilized for each of the two treatments. The labs utilized for the nutrition study were from a minimum of 6 different bitches. The lean body mass of the 40 test dogs was determined by scanning with the DEXA and the final key component utilized to assure equal groups. Prior to the start of the study, the labs were acclimated to the experimental diets for a minimum of 10 days. The labs were weighed at the beginning of the 90 day study and weighed every two weeks throughout the study. Feed consumption was determined daily by weighing feed provided and feed refusals. The quantity of food provided each dog on a daily basis was adjusted based on maintaining a minimum initial starting body weight throughout the study. The dog food was provided by Lonza Inc. and was equal to the minimum guaranteed analysis of Gold N Pro (MFA of Missouri) that the performance dogs had been consuming prior to the start of the study (Table 1).

skeletal muscle = experiment: Fractional breakdown rate (FBR) of skeletal muscle, 3-methylhistidine, Example 2 part two; assay type: in vivo, dog; conditions: for FBR: run, muscle samples
Source text: Twenty-six Labrador Retrievers ranging in age from 1.5 to 4.5 years were chosen from part one of the study and were fed for an additional 60 days following the termination of part one of the study. Test dogs remained in their previous treatment groups. Measurements on Actical movements/kg BW/mile endurance runs obtained during part one of the study were utilized to ensure that both the control and the L-carnitine groups were equal for performance potential. The lean body mass of the test dogs was determined by scanning with the DEXA as an additional measure for ensuring equal groups. Twelve dogs (6 males and 6 females) were assigned to each treatment group. Two additional dogs (1 male and 1 female) were fed the low carnitine basal diet of the control group and were used as controls that were not enriched with isotopes during the study; these two control dogs were used to measure the natural amount of 15N Phe in the sample. During the 60 day trial, the test dogs were fed low-carnitine basal diets with or without L-carnitine supplementation in a manner analogous to that of part one of the study. For three days prior to the final muscle biopsy and blood collection, all test dogs were feed an “all vegetarian plus egg” diet from Purina LabDiet that had nutrient specifications that were equivalent to that of the low carnitine basal diet. […] At the end of the 60 day training program, 24 of the dogs (12 resting and 12 running) were infused with a bolus dose of 15N Phe. […] Forty-five minutes after infusion, a 5 mm Bergstrom muscle biopsy needle was used to take a biopsy of the biceps femoris muscle. The muscle samples were quickly frozen in liquid nitrogen and placed in a −80° C. freezer for later analysis]. Twenty-four hours after the resting dogs were infused with 15N Phe, the remaining 12 dogs (6 non-carnitine; 3 male and 3 female and 6 L-carnitine; 3 male and 3 female) were run for a 15 mile endurance run. Following a 30 minute period of measured physiological recovery (heart rate and body temperature), test dogs that completed the 15 mile run were infused with a 2% 15N Phe solution as described above; muscle biopsies were taken 45 minutes after infusion. Blood samples were taken from the carotid artery for each test dog and analyzed for 3 MH. Three days prior to taking the blood samples, the dogs were fed the “all vegetable plus egg” non-meat diet from Purina LabDiet to ensure that the 3 MH found in the blood represented the skeletal muscle protein breakdown. To process the samples, the acid-soluble fraction containing free amino acids was removed by addition of 2% (w/v) perchloric acid. After homogenization, samples were centrifuged at 3,000×g, and the supernatant, containing free amino acids, was removed. The protein precipitate was washed three times with 2% perchloric acid before being hydrolyzed in 6N HCL. The supernatant and precipitate, respectively, were then run through an ion-exchange column packed with Dowex 50WX8-200. Phenylalanine and 3-methylhistidine (3-MH) were eluted with 2 mL of 4N NH4OH and 1 mL of nanopure H2O into a new vial and then dried under vacuum. The tert-butyldimethylsilyl (tBDMS) derivative was formed by adding 800 μL of C2CH3CN-MTBSTFA (1:1) and incubating at 110° C. for 60 minutes. The same mass spectrometer was used to determine 3-MH. […] The 238 m/z fragment of 3-MH was monitored. The muscle samples were analyzed for the fractional breakdown rate (FBR). FBR was calculated as kd=3-MH daily excretion/3-MH muscle pool×100. […]

C[N+](C)(C)C[C@H](O)CC(=O)[O-] [L-carnitine]
Daily Food Intake ([1]; Week 2): 723 ± 26 n = 20 g | Daily Food Intake ([1]; Week 4): 636 ± 30 n = 20 g | Daily Food Intake ([1]; Week 5): 639 ± 27 n = 20 g | Daily Food Intake ([1]; Week 6): 651 ± 26 n = 20 g | Daily Food Intake ([1]; Week 7): 626 ± 24 n = 20 g | Daily Food Intake ([1]; Week 8): 626 ± 24 n = 20 g | Daily Food Intake ([1]; Week 9): 622 ± 26 n = 20 g | Daily Food Intake ([1]; Week 10): 570 ± 25 n = 20 g | Daily Food Intake ([1]; Week 11): 577 ± 24 n = 20 g | Daily Food Intake ([1]; Week 13): 555 ± 20 n = 20 g | Food consumption vs control ([1]; over the entire 13 wk period): not significantly different | Daily Food Intake ([1]; overall Average of 13 wk study): 626 g and 626 ± 24 n = 20 g | Fractional Breakdown Rate (FBR) of muscle samples (skeletal muscle; Ex.2 part two, 250 mg/d, adjusted for gender and exercise state): 1.92% | FBR (% protein breakdown rate/day) of skeletal muscle (skeletal muscle; Ex.2 part two, 250 mg/d, exercised females (15 mile endurance run)): 3.26% | FBR of skeletal proteins (skeletal muscle; Ex.2 part two, 250 mg/d, running males): 1.26% | FBR (skeletal muscle; Female): 3.26^a % | FBR (skeletal muscle; Male): 1.26^a %
